Measurements as given in patent US20050192221A1, “Methods and compositions related to plunc polypeptides” (priority 2003, published 2005).
Values after ≈ are worked out from the molar mass of the structure shown. Values joined by “and” are separate entries in the source; they are usually repeats but may differ in a detail not shown here. Identical values can stand only once. “Also recorded” adds a separate entry of the source. Like-named read-outs stand apart in the source and are kept apart here.

How the values were obtained:
Staphylococcus aureus = details: cited from earlier work; for MIC50 / MIC90: unit assumed
Mycoplasma pneumoniae = details: cited from earlier work
Mycoplasma hominis = details: cited from earlier work
Campylobacter jejuni = details: in µg/mL (unit assumed); cited from earlier work
Neisseria gonorrhoeae = details: in µg/mL (unit assumed), cited from earlier work
Bacillus spp. = details: cited from earlier work
Borrelia burgdorferi = details: unit assumed; cited from earlier work
Bacteroides fragilis = details: cited from earlier work
Campylobacter pylori = details: cited from earlier work
Streptococcus pyogenes = details: in µg/mL (unit assumed); cited from earlier work
Listeria monocytogenes = details: unit assumed; cited from earlier work
Haemophilus ducreyi = details: unit assumed; cited from earlier work
Enterococcus faecium = details: unit assumed; cited from earlier work
Enterococcus spp. = details: unit assumed; cited from earlier work
Haemophilus influenzae = details: in µg/mL (unit assumed), cited from earlier work
Streptococcus pneumoniae = details: in µg/mL (unit assumed); cited from earlier work
Streptococcus agalactiae = details: cited from earlier work
Neisseria meningitidis = details: cited from earlier work
Streptococcus spp. = details: unit assumed; cited from earlier work
[1] = tested on: Haemophilus parainfluenzae; details: cited from earlier work
[2] = tested on: Bordetella bronchiseptica; details: cited from earlier work
[3] = tested on: Branhamella (Moraxella) catarrhalis; details: Branhamella (Moraxella) catarrhalis (β-lactamase producer); in µg/mL (unit assumed); cited from earlier work
[4] = tested on: endotoxin from E. coli 0111:B4; assay: Limulus amebocyte lysate assay, endotoxin spiked with serial dilutions; format: biochemical; details: 30 ng E. coli endotoxin/well spiked with serial dilutions of ASL washings or supernatant from LPLUNC1 transfected 293 cells
Experimental: FIG. 3. ASL and LPLUNC1 inhibit endotoxin activity in the Limulus amebocyte lysate assay. Endotoxin activity contrasted in control media (closed circles, 30 ng E. coli endotoxin/well), or 30 ng endotoxin samples spiked with serial dilutions of ASL washings (closed squares) or cell culture supernatant from LPLUNC1 transfected 293 cells (closed diamonds). 10 EU=1 ng endotoxin.
As confirmation of the endotoxin binding activities of ASL secretions and expressed LPLUNC1, an additional assay was performed. The Limulus amebocyte lystate assay (QCL-1000; BioWhittaker, Walkersville, Md.) was used to determine if these samples inhibited endotoxin activity in this extremely sensitive laboratory test. Lyophilized standard endotoxin from E. coli 0111:B4 in sterile water (chromogenic substrate) was spiked with serial dilutions of ASL washings, or supernatants from LPLUNC1 transfected cells. Endotoxin concentrations were determined by measuring the change in absorbance at 405 nm, as described previously (Thorne et al., 1999).

[5] = format: binding, N. meningitidis; details: recombinant LPLUNC1 C-terminal 6HIS incubated with 14C-LOS for 1 hr; versus Ad empty control supernatant
[6] = tested on: human peripheral blood mononuclear cells stimulated by N. meniningititis lipo-oligosaccharide (LOS); assay: LOS stimulation of human peripheral blood mononuclear cells; format: cell-based; details: baculovirus culture supernatants, N-terminal tagged proteins, 10 ng/ml N. meniningititis LOS
LOS = assay: Limulus amebocyte lysate assay, detected LOS; format: biochemical; details: proteins from cell free in vitro translation (RTS) or HeLa supernatants, dilutions 1:1 to 1:8; 0.1 ng/ml LOS
[7] = tested on: TLR4 mediated signaling in human umbilical vein endothelial cells (HUVECS); assay: LOS stimulated IL-8 release from HUVECS; format: cell-based; details: HUVECs treated overnight with LOS aggregates (3 ng/ml), soluble CD14 (250 ng/ml), LBP (100 ng/ml); ASL washings or supernatants of transfected 293 cells
Description: FIGS. 2A-2B. Effects of airway surface liquid (ASL), PLUNC, and LPLUNC1 on TLR4 mediated signaling in human umbilical vein endothelial cells (HUVECS). HUVECS in a 24 well dish were exposed to LOS from N. Meningitidis overnight in the presence of SCD14 and LBP. […] Control=media alone. […] Control cells were transfected with a plasmid expressing GFP. The transfection efficiency, based on GFP expression was >75%.
Alternatively, the inventors also consider the possibility that the properties of the proteins may be LBP-like and that their function may depend on the available concentrations. The ability of ASL to inhibit TLR4-mediated signaling in response to N. meningitis lipooligosaccharide (LOS) was tested in human umbilical vein endothelial cells (HUVECs) (Giardina et al., 2001). ASL secretions were recovered from the apical surface of primary cultures of human airway epithelia grown in serum free media by washing the surface with PBS. As show in FIG. 2A, HUVECs treated overnight with LOS aggregates (3 ng/ml) in the presence of soluble CD14 (250 ng/ml) and LBP (100 ng/ml) released significant quantities of IL-8 into the cell culture media. […] To determine whether PLUNC and/or LPLUNC1 have similar effects on TLR4 signaling, the inventors expressed their cDNAs in 293 cells grown in serum free media and harvested supernatants 48 hr following transfection.

[8] = Neisseria gonorrhoeae (non β-lactamase producer)
[9] = Staphylococcus aureus (penicillin susceptible)
[10] = Haemophilus influenzae (non β-lactamase producer)
[11] = Haemophilus influenzae (penicillin resistant)
[12] = Haemophilus influenzae (penicillin susceptible)
[13] = Haemophilus influenzae (β-lactamase producer)

CCC[C@@H]1C[C@@H](C(=O)N[C@@H]([C@H]2O[C@H](SC)[C@H](O)[C@@H](O)[C@H]2O)[C@@H](C)O)N(C)C1 [LINCOMYCIN, lincomycin]
Range (of MIC) (Staphylococcus aureus; Staphylococcus aureus, in µg/mL (unit assumed)): 0.5-512
MIC50 (Staphylococcus aureus; Staphylococcus aureus): 1 µg/mL (≈ 2.46 µM)
MIC90 (Staphylococcus aureus; Staphylococcus aureus): 1 µg/mL (≈ 2.46 µM)
Range (of MIC) (Mycoplasma pneumoniae; in µg/mL (unit assumed)): 2-32
MIC50 (Mycoplasma pneumoniae; unit assumed): 8 µg/mL (≈ 19.7 µM)
MIC90 (Mycoplasma pneumoniae; unit assumed): 32 µg/mL (≈ 78.7 µM)
Range (of MIC) (Mycoplasma hominis; in µg/mL (unit assumed)): 0.5-16
MIC50 (Mycoplasma hominis; unit assumed): 2 µg/mL (≈ 4.92 µM)
MIC90 (Mycoplasma hominis; unit assumed): 4 µg/mL (≈ 9.84 µM)

CC[C@H]1OC(=O)[C@H](C)[C@@H](O[C@H]2C[C@@](C)(OC)[C@@H](O)[C@H](C)O2)[C@H](C)[C@@H](O[C@@H]2O[C@H](C)C[C@H](N(C)C)[C@H]2O)[C@](C)(O)C[C@@H](C)C(=O)[C@H](C)[C@@H](O)[C@]1(C)O [ERYTHROMYCIN, erythromycin]
MIC90 (Campylobacter jejuni): 4 and 2
Range (of MIC) (Campylobacter jejuni): 0.5-8
MIC90 (Neisseria gonorrhoeae; [8]): 1 and 2
Range (of MIC) (Neisseria gonorrhoeae; [8]): 0.03-2 and 0.015-4
MIC90 (Neisseria gonorrhoeae; Neisseria gonorrhoeae (β-lactamase producer)): 2 and 4
MIC90 (Neisseria gonorrhoeae; Neisseria gonorrhoeae): 1
Range (of MIC) (Neisseria gonorrhoeae; Neisseria gonorrhoeae): 0.0075-8
Range (of MIC) (Bacillus spp.; in µg/mL (unit assumed)): 0.03-2
MIC90 (Bacillus spp.; unit assumed): 2 µg/mL (≈ 2.73 µM)
MIC50 (Borrelia burgdorferi): 0.03 µg/mL (≈ 0.0409 µM)
MIC90 (Borrelia burgdorferi): 0.06 µg/mL (≈ 0.0818 µM)
Range (of MIC) (Bacteroides fragilis; in µg/mL (unit assumed)): 0.25-16
MIC50 (Bacteroides fragilis; unit assumed): 1 µg/mL (≈ 1.36 µM)
MIC90 (Bacteroides fragilis; unit assumed): 8 µg/mL (≈ 10.9 µM)
Range (of MIC) (Campylobacter pylori; in µg/mL (unit assumed)): 0.25-16
MIC50 (Campylobacter pylori; unit assumed): 0.5 µg/mL (≈ 0.681 µM)
MIC50 (Streptococcus pyogenes): 0.06 and 0.03
MIC50 (Listeria monocytogenes): 0.5 µg/mL (≈ 0.681 µM)
MIC50 (Haemophilus ducreyi): 4 ng/mL (≈ 0.00545 µM)
MIC90 (Haemophilus ducreyi): 0.06 µg/mL (≈ 0.0818 µM)
MIC50 (Enterococcus faecium): 1 µg/mL (≈ 1.36 µM)
MIC50 (Staphylococcus aureus; Staphylococcus aureus (methicillin susceptible)): 0.5 µg/mL (≈ 0.681 µM)
MIC50 (Staphylococcus aureus; [9]): 0.5 µg/mL (≈ 0.681 µM)
MIC90 (Staphylococcus aureus; [9]): 0.5 µg/mL (≈ 0.681 µM)
MIC50 (Staphylococcus aureus; Staphylococcus aureus): 0.5 µg/mL (≈ 0.681 µM)
MIC50 (Enterococcus spp.): 2 µg/mL (≈ 2.73 µM)
MIC50 (Haemophilus influenzae; [10]): 2 and 4
MIC90 (Haemophilus influenzae; [10]): 4 and 8
MIC50 (Haemophilus influenzae; [11]): 8
MIC90 (Haemophilus influenzae; [11]): 16
Range (of MIC) (Haemophilus influenzae; [11]): 8-16
MIC50 (Haemophilus influenzae; [12]): 8
MIC90 (Haemophilus influenzae; [12]): 16
Range (of MIC) (Haemophilus influenzae; [12]): 0.25-16
MIC50 (Haemophilus influenzae; [13]): 4 and 2
MIC90 (Haemophilus influenzae; [13]): 8 and 4
MIC50 (Haemophilus influenzae; Haemophilus influenzae): 2 and 1
MIC90 (Haemophilus influenzae; Haemophilus influenzae): 2 and 4
Range (of MIC) (Haemophilus influenzae; Haemophilus influenzae): 0.5-8
MIC50 (Streptococcus pneumoniae): 0.06 and 0.03
MIC90 (Streptococcus pneumoniae): 0.03 and 0.06
Range (of MIC) (Streptococcus pneumoniae): 0.03-0.25 and 0.015-0.06 and 0.015-0.25
Range (of MIC) (Streptococcus agalactiae; in µg/mL (unit assumed)): 0.03-0.25 and 0.015-0.06
MIC50 (Streptococcus agalactiae; unit assumed): 0.03 µg/mL (≈ 0.0409 µM)
MIC90 (Streptococcus agalactiae; unit assumed): 0.03 µg/mL (≈ 0.0409 µM)
Range (of MIC) (Neisseria meningitidis; in µg/mL (unit assumed)): 0.5-8
MIC50 (Neisseria meningitidis; unit assumed): 1 µg/mL (≈ 1.36 µM)
MIC90 (Neisseria meningitidis; unit assumed): 8 µg/mL (≈ 10.9 µM)
MIC50 (Streptococcus spp.): 0.03 µg/mL (≈ 0.0409 µM)
Range (of MIC) ([1]; in µg/mL (unit assumed)): 0.5-8
MIC50 ([1]; unit assumed): 2 µg/mL (≈ 2.73 µM)
MIC90 ([1]; unit assumed): 4 µg/mL (≈ 5.45 µM)
Range (of MIC) ([2]; in µg/mL (unit assumed)): 4-32
MIC50 ([2]; unit assumed): 8 µg/mL (≈ 10.9 µM)
MIC90 ([2]; unit assumed): 32 µg/mL (≈ 43.6 µM)
Range (of MIC) [3]: 0.06-1 and 0.03-0.25 and 0.06-8

B1: LPLUNC1: human long PLUNC protein, 484 amino acids; tested as recombinant culture supernatant, in vitro translation product or 6HIS tagged protein (protein, UniProt Q8TDL5 22-484, looked up)
BPI fold-containing family B …: TLSPTAVLILGPKVIKEKLTQELKDHNATSILQQLPLLSAMREKPAGGIPVLGSLVNTVLKHIIWLKVITANILQLQVKPSANDQELLVKIPLDMVAGFNTPLVKTIVEFHMTTEAQATIRMDTSASGPTRLVLSDCATSHGSLRIQLLHKLSFLVNALAKQVMNLLVPSLPNLVKNQLCPVIEASFNGMYADLLQLVKVPISLSIDRLEFDLLYPAIKGDTIQLYLGAKLLDSQGKVTKWFNNSAASLTMPTLDNIPFSLIVSQDVVKAAVAAVLSPEEFMVLLDSVLPESAHRLKSSIGLINEKAADKLGSTQIVKILTQDTPEFFIDQGHAKVAQLIVLEVFPSSEALRPLFTLGIEASSEAQFYTKGDQLILNLNNISSDRIQLMNSGIGWFQPDVLKNIITEIIHSILLPNQNGKLRSGVPVSLVKALGFEAAESSLTKDALVLTPASLWKPSSPVSQ
inhibition of endotoxin activity [4]: inhibited endotoxin activity in a dose dependent fashion
14C-LOS recovered with nickel resin [5]: Significantly more LOS was recovered
effect on responsiveness of PBMC to LOS stimulation [6]: BPI-like inhibitory effects; also recorded: dampened the proinflammatory effect of LOS
detectable level of LOS (LOS): dose-dependent decrease in detected LOS
effect on LOS stimulated IL-8 release from HUVECS [7]: dampened IL-8 secretion

B2: PLUNC: human palate, lung, and nasal epithelium clone protein, 256 amino acids; tested as recombinant culture supernatant or in vitro translation product (protein, UniProt Q9NP55 20-256, looked up)
BPI fold-containing family A …: QFGGLPVPLDQTLPLNVNPALPLSPTGLAGSLTNALSNGLLSGGLLGILENLPLLDILKPGGGTSGGLLGGLLGKVTSVIPGLNNIIDIKVTDPQLLELGLVQSPDGHRLYVTIPLGIKLQVNTPLVGASLLRLAVKLDITAEILAVRDKQERIHLVLGDCTHSPGSLQISLLDGLGPLPIQGLLDSLTGILNKVLPELVQGNVCPLVNEVLRGLDITLVHDIVNMLIHGLQFVIKV
effect on responsiveness of PBMC to LOS stimulation [6]: LBP-like pro-inflammatory activity
effect on responsiveness of PBMC to LOS stimulation ([6]; listed as SPLUNC1): enhanced the LOS signaling
detectable level of LOS (LOS): dose-dependent decrease in detected LOS
effect on LOS stimulated IL-8 release from HUVECS [7]: dampened IL-8 secretion
